Measured values as given in patent US20100034832A1, “METHODS FOR MANIPULATING STEM CELLS” (THE GENERAL HOSPITAL CORPORATION, priority 2006, published 2010).
Where two headings read alike, the source gives them in different places.

Experiments:
[1] = system: PB leucocyte count; assay: 5-fluorouracil (5FU) BM injury model, PB counts; assay type: in vivo, mouse; conditions: single 150 mg/kg 5FU intraperitoneally
Description: Similar results were obtained when mice were subjected to BM injury using 5-fluorouracil (5FU) (data not shown). In the 5FU injury model, 150 mg/kg mouse weight 5FU was injected intraperitoneally at day 0 PB was obtained through tail vein bleeding for analysis weekly starting day 0 (n=10 per group).
Next, we examined the role of P2Y14 in long-term hematopoietic recovery from BM injury. The mice were subjected to a single injection of 5FU and followed the peripheral blood (PB) leucocyte counts as well as PB granulocyte, B cell and T cell content by flow cytometry.
Med. 6, 1235-1240 (2000).

[2] = system: immature HSC fraction of the BM; conditions: 200 mg/kg CTX intraperitoneally, day 4
Description: In the CIX injury model, either sterile PBS or CTX at final concentration of 200 mg/kg mouse weight was injected intraperitoneally. At day 4 after injection, mice were euthanized and BM was obtained from femurs and tibiae of each mouse (n=5 per group).
Apoptosis was measured by AnnexinV and 7AAD staining as previously described Cheng, T. et al. Nat. Med. 6, 1235-1240 (2000).

Compound: O=c1[nH]cc(F)c(=O)[nH]1 [5FU, 5-fluorouracil]
- persistence of greater than normal granulocyte (Gr-1+) count rebound ([1]; P2Y14-/- mice): up to 9 weeks
- nadir of total PB leucocyte count ([1]; both -/- and +/+ mice): 7 days
- peak of rebound leucocytosis ([1]; both -/- and +/+ mice): 14 days
- return to baseline leucocyte count ([1]; both -/- and +/+ mice): 3-4 weeks post-injection

Compound: O=P1(N(CCCl)CCCl)NCCCO1 (stereo not shown) [CTX, cyclophosphamide]
- immature HSC fraction of the BM (% LKS+, % CD34lo/-LKS+) ([2]; P2Y14-/- mice): loss of enrichment for immature HSC fraction
- apoptosis in the immature HSC fraction ([2]; P2Y14-/- mice, AnnexinV and 7AAD): increased apoptosis
- immature HSC fraction of the BM (% LKS+, % CD34lo/-LKS+) ([2]; wildtype mice): enrichment of immature HSC fraction
